Target: Neuraminidase (Influenza B virus (strain B/Lee/1940), UniProt P03474)
Test: Effective concentration against neuraminidase of Influenza B virus B/Memphis strain

Chain of Neuraminidase (P03474 whole entry): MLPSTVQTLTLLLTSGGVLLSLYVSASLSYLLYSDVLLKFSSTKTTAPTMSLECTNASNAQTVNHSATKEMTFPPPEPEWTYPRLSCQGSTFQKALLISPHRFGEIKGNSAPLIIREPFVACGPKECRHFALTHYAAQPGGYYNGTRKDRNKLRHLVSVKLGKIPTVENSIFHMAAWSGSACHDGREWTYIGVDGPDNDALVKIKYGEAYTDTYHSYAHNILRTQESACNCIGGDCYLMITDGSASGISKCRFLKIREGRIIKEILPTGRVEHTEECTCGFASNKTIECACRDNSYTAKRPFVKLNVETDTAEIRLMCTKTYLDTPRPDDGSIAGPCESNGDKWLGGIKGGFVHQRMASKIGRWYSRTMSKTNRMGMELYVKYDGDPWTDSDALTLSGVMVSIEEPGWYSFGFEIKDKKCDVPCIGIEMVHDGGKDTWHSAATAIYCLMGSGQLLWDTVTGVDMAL

SMILES | EC50 [µM]
CC(=O)N[C@@H](CC(C)C)[C@@H]1N[C@@H](C(=O)O)C[C@H]1c1c[nH]cn1 | 11
C=C[C@@H]1C[C@H](C(=O)O)N[C@H]1[C@H](CC(C)C)NC(C)=O | 23
CC(=O)N[C@@H](CC(C)C)[C@@H]1N[C@@H](C(=O)O)C[C@H]1c1nccs1 | 6
CC(=O)N[C@@H](CC(C)C)[C@@H]1N[C@@H](C(=O)O)C[C@H]1C=C(F)F | 9
